According to ChEMBL document CHEMBL5335773, “Synthesis and structure-activity relationship of new nicotinamide phosphoribosyltransferase inhibitors with antitumor activity on solid and haematological cancer” (Eur J Med Chem, 2023):

How the values were obtained:
MIA PaCa-2 [1] = assay: cells; conditions: Homo sapiens, MIA PaCa-2, 72 h
[2] = biological target: Nicotinamide phosphoribosyltransferase (Homo sapiens, UniProt P43490); assay: Inhibition of full-length recombinant human NAMPT (2 to 491 residues) expressed in Escherichia coli using NAM as substrate preincubated for 5 mins followed by substrate addition measured after 15 mins by fluorescence based assay
Sequence of Nicotinamide phosphoribosyltransferase (P43490 whole entry, the tested form may be a part): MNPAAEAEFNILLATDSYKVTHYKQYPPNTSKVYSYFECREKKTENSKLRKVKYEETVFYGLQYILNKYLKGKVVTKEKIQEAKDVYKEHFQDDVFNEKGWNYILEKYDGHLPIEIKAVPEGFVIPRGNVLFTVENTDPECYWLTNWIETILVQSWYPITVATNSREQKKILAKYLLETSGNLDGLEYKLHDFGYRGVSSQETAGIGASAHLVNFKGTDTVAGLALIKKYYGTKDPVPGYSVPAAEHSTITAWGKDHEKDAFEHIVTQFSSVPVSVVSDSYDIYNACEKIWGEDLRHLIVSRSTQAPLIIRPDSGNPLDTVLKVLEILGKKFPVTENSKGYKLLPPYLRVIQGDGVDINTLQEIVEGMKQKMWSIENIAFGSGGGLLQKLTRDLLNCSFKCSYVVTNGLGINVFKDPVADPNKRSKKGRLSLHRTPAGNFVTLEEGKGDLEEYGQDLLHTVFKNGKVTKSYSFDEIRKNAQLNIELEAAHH

ML-2 = assay: Cytotoxicity against human ML-2 cells assessed as inhibition of cell viability at 72 hrs by SRB assay; format: functional, cell-based; conditions: ML-2, 72 h
NAMALVA = assay: Cytotoxicity against human NAMALVA cells assessed as inhibition of cell viability at 72 hrs by SRB assay; format: functional, cell-based
RPMI-8226 = assay: Cytotoxicity against human RPMI-8226 cells assessed as inhibition of cell viability at 72 hrs by SRB assay; format: functional, cell-based; conditions: RPMI-8226, 72 h
MIA PaCa-2 [3] = assay: cells; conditions: Homo sapiens, MIA PaCa-2, 24 h
Jurkat = assay: Cytotoxicity against human Jurkat cells assessed as inhibition of cell viability at 72 hrs by SRB assay; format: functional, cell-based
NB-4 = assay: Cytotoxicity against human NB4 cells assessed as inhibition of cell viability at 72 hrs by SRB assay; format: functional, cell-based; conditions: NB-4, 72 h

SMILES: O=C(CCCCCCNC(=S)Nc1cccnc1)N(Cc1ccco1)C1CCCC1
- IC50 (MIA PaCa-2 [1]): 153 nM

SMILES: O=S(=O)(CCCCCCNC(=S)Nc1cccnc1)N(Cc1ccco1)C1CCCC1
- IC50 [2]: 69.1 nM
- IC50 (ML-2): 3.1 nM
- IC50 (NAMALVA): 4.23 nM
- IC50 (RPMI-8226): 20.1 nM
- IC50 (MIA PaCa-2 [1]): 16.4 nM
- IC50 (MIA PaCa-2 [3]): 0.43 nM

SMILES: O=C(CCCCCCCn1cc(-c2cccnc2)nn1)n1cccc1
- IC50 (MIA PaCa-2 [1]): 494 nM

SMILES: COc1ccc2[nH]c(C(=O)N3CCC(CCCCn4cc(-c5cccnc5)nn4)CC3)cc2c1
- IC50 (MIA PaCa-2 [1]): 860 nM

SMILES: O=C(Nc1ccc(C(=O)N(Cc2ccco2)C2CCCC2)cc1)N1Cc2ccccc2C1
- IC50 (MIA PaCa-2 [1]): > 1000 nM

SMILES: N#C/N=C(\NCCCCCCCCNC(=O)c1cc2ccccc2[nH]1)Nc1cccnc1
- IC50 (MIA PaCa-2 [1]): 81 nM

SMILES: N#C/N=C(\NCCCCCCC(=O)N(Cc1ccc(Cl)cc1)Cc1ccco1)N1Cc2ccccc2C1
- IC50 (MIA PaCa-2 [1]): > 1000 nM

SMILES: O=C(NCCCCCCCCNC(=S)Nc1cccnc1)c1cc2ccccc2[nH]1
- IC50 (MIA PaCa-2 [1]): 605 nM

SMILES: N#C/N=C(\NCCCCCCS(=O)(=O)N(Cc1ccco1)C1CCCC1)Nc1ccccc1
- IC50 (MIA PaCa-2 [1]): 176 nM
- IC50 (MIA PaCa-2 [3]): 4.7 nM

SMILES: O=C(NCc1ccco1)c1ccc(NC(=O)N2Cc3ccccc3C2)cc1
- IC50 (MIA PaCa-2 [1]): > 1000 nM

SMILES: O=C(c1cc2ccccc2[nH]1)N1CCC(CCCCn2cc(-c3cccnc3)nn2)CC1
- IC50 (MIA PaCa-2 [1]): 727 nM

SMILES: N#C/N=C(\NCCCCCCCC(=O)NCc1ccco1)Nc1ccncc1
- IC50 (MIA PaCa-2 [1]): > 1000 nM

SMILES: O=C(CCCCCCCNC(=S)Nc1cccnc1)n1cccc1
- IC50 (MIA PaCa-2 [1]): 854 nM

SMILES: N#C/N=C(\NCCCCCC(=O)N(Cc1ccco1)c1ccc(Cl)cc1)Nc1ccncc1
- IC50 (MIA PaCa-2 [1]): 6.3 nM
- IC50 (MIA PaCa-2 [3]): 0.5 nM

SMILES: O=C(CCCCCCCn1cc(-c2cccnc2)nn1)NCc1ccco1
- IC50 (MIA PaCa-2 [1]): > 1000 nM

SMILES: N#C/N=C(\NCCCCCCC(=O)N(Cc1ccco1)c1ccc([N+](=O)[O-])cc1)Nc1ccncc1
- IC50 (ML-2): 0.32 nM
- IC50 (NAMALVA): 1.39 nM
- IC50 (RPMI-8226): 2.13 nM
- IC50 (MIA PaCa-2 [1]): 2.1 nM
- IC50 (MIA PaCa-2 [3]): 0.14 nM

SMILES: N#C/N=C(\NCCCCC1CCN(C(=O)c2cc3ccccc3[nH]2)CC1)Nc1cccnc1
- IC50 (MIA PaCa-2 [1]): 113 nM

SMILES: N#C/N=C(\NCCCCCCC(=O)N(CCCN1CCOCC1)Cc1ccco1)Nc1ccncc1
- IC50 (MIA PaCa-2 [1]): 3 nM
- IC50 (MIA PaCa-2 [3]): 1.43 nM

SMILES: N#C/N=C(\NCCCCCCC(=O)N(CCCN1CCCC1)Cc1ccco1)Nc1ccncc1
- IC50 (MIA PaCa-2 [1]): 4.5 nM
- IC50 (MIA PaCa-2 [3]): 2 nM

SMILES: N#C/N=C(\NCCCCCCC(=O)N(CCCN1CCOCC1)Cc1ccco1)N1Cc2ccccc2C1
- IC50 (MIA PaCa-2 [1]): > 1000 nM

SMILES: CCOC(=O)c1ccc(N/C(=N/C#N)NCCCCCCS(=O)(=O)N(Cc2ccco2)C2CCCC2)cc1
- IC50 (MIA PaCa-2 [1]): 738 nM

SMILES: N#C/N=C(\NCCCCCCC(=O)N(Cc1ccco1)C1CCCC1)N1Cc2ccccc2C1
- IC50 (MIA PaCa-2 [1]): > 1000 nM

SMILES: O=C(c1cc2ccccc2[nH]1)N1CCC(CCCCNC(=S)Nc2cccnc2)CC1
- IC50 (MIA PaCa-2 [1]): > 1000 nM

SMILES: N#C/N=C(\NCCCCCCn1cc(CN(CCCN2CCOCC2)Cc2ccco2)nn1)Nc1ccncc1
- IC50 (MIA PaCa-2 [1]): 25.8 nM
- IC50 (MIA PaCa-2 [3]): 2.36 nM

SMILES: N#C/N=C(\NCCCCCCS(=O)(=O)N(Cc1ccco1)C1CCCC1)Nc1ccc(N=[N+]=[N-])cc1
- IC50 (MIA PaCa-2 [1]): 1000 nM

SMILES: O=C(CCCCCCCNC(=S)Nc1cccnc1)NCc1ccco1
- IC50 (MIA PaCa-2 [1]): > 1000 nM

SMILES: N#C/N=C(\NCCCCCCC(=O)N(Cc1ccco1)c1ccc(Cl)cc1)Nc1ccncc1
- IC50 (MIA PaCa-2 [1]): 1.7 nM
- IC50 (MIA PaCa-2 [3]): 0.17 nM

SMILES: N#C/N=C(\NCCCCCC(=O)N(Cc1ccco1)C1CCCC1)Nc1ccncc1
- IC50 (ML-2): 0.36 nM
- IC50 (NAMALVA): 1.77 nM
- IC50 (RPMI-8226): 1.9 nM
- IC50 (MIA PaCa-2 [1]): 3 nM
- IC50 (MIA PaCa-2 [3]): 0.2 nM

SMILES: O=C(NCCCCCCCCn1cc(-c2cccnc2)nn1)c1cc2ccccc2[nH]1
- IC50 (MIA PaCa-2 [1]): 549 nM

SMILES: N#C/N=C(\NCCCCCCS(=O)(=O)N(CCCN1CCOCC1)Cc1ccco1)Nc1ccncc1
- IC50 (MIA PaCa-2 [1]): 2.26 nM
- IC50 (MIA PaCa-2 [3]): 1.5 nM

SMILES: N#C/N=C(\NCCCCCCC(=O)N(Cc1ccco1)C1CCCC1)Nc1ccccc1
- IC50 (MIA PaCa-2 [1]): > 1000 nM

SMILES: N#C/N=C(\NCCCCCC(=O)N(CCCN1CCOCC1)Cc1ccco1)Nc1ccncc1
- IC50 (MIA PaCa-2 [1]): 16.3 nM
- IC50 (MIA PaCa-2 [3]): 11.2 nM

SMILES: O=C(/C=C/c1cccnc1)NCCCCC1CCN(C(=O)c2ccccc2)CC1 [DAPORINAD]
- IC50 (ML-2): 0.24 nM
- IC50 (Jurkat): 0.73 nM
- IC50 (NAMALVA): 0.37 nM
- IC50 (RPMI-8226): 0.76 nM
- IC50 (NB-4): 2 nM
- IC50 (MIA PaCa-2 [1]): 2.4 nM
- IC50 (MIA PaCa-2 [3]): 0.34 nM
